{"source": "patent US20060148009A1", "about": "“Prediction and assessment of immunogenicity” (Xencor, Inc., priority 2004, published 2006)", "test_system": "MHC class II proteins on B cells (DRB1*0701 DQA1*0201 DQB1*0202)", "assay": "Peptide binding assay: competition of biotinylated EBV280-290 binding to B cells, flow cytometry", "conditions": "FIG. 29", "method": "Peptide binding to MHC class II proteins on the surface of Epstein-Barr virus-transformed B lymphocytes was tested by quantitative flow cytometric analysis (Busch et al. 1990), with modifications. Low resolution HLA typed B cell lines (DR2 and DR7) were obtained from the Coriell Institute for Medical Research (Camden, N.J.). Those cell lines were HLA typed at high resolution for DRB1, DQA1 and DQB1. The B cell lines GM03107, GM08605, and Jesthom were selected for binding studies. The following MHC allele and reference peptide combinations were used: DRB1*0101 and influenzae peptide HA307-319, […] (SEQ ID NO:48) (Busch, R. 1991); DRB1*0701 and Epstein-Barr virus peptide EBV280-290, […] (SEQ ID NO:49) (Omiya et al., 2002); DRB1*1501 and myelin basic protein MBP84-100, […] (SEQ ID NO:50) (Fridkis-Hareli et al., 2001). A biotin molecule followed by a caproic acid-caproic acid spacer was added to the N-terminus of the reference peptides. The binding of biotinylated peptides to the MHC molecules was tested at various pH values. The pH 5.5 was used to test competition with IFN-β peptides. Detection of peptide binding was done with streptavidin-AlexaFluor546 (Molecular Probes, Eugene, O.R.) in a PCA-96 flow cell counter (Guava Technologies Inc., Hayward, Calif.). […]", "data": [{"sequence": "HYLKAKEYSHCAWTIVR", "values": [{"measurement": "competition of EBV280-290 peptide binding to B cells", "value": "dose-dependent competition"}]}]}
